What was measured:
[1] = test system: L. infantum amastigotes; experiment: Ex vivo murine splenic explant culture, intramacrophage amastigotes; format: cell-based; conditions: Leishmania infantum, Hec50; intramacrophage amastigotes in splenic explants, 96 h, EC50 ± SD
Method: (§1) The effect of the new quinolinylphosphonate derivatives 7 synthesized was assessed on both free-living promastigotes and intramacrophage amastigotes of L. infantum as it is described in experimental protocols. Primary cultures of intramacrophage amastigotes were obtained from splenic explants from 6-weeks infected Balb/c mice with L. infantum-iRFP promastigotes. The infrared fluorescence emitted by both stage forms of the parasite was used as viability criterium, using 0.5% DMSO as negative control (100% viability) and […] AMB as a positive control (0% viability).
The EC50 values of compounds against the amastigote forms were calculated using a cell suspension obtained from spleens extracted from BALB/c mice. Mice had been infected previously with iRFP L. infantum metacyclic promastigotes and sacrificed five weeks after infection. To obtain the cell suspension containing amastigotes, spleens washed with cold phosphate-buffered saline (PBS), were cut into pieces, and incubated with 5 mL of 2 mg/mL collagenase D (Sigma, Darmstadt, Germany), which was prepared in buffer (10 mM HEPES, pH 7.4, 150 mM NaCl, 5 mM KCl, 1 mM MgCl2 and 1.8 mM CaCl2) for 20 min. Subsequently, these cells were passed through a 100 µm cell strainer, collected by centrifugation (500× g for 7 min at 4 °C), washed twice with PBS, and suspended in RPMI medium (Gibco, Thermo Fisher Scientific, MA, USA) supplemented with 10 mM HEPES, 1 mM sodium pyruvate, 1xRPMI 1640 vitamin mix, 10% (v/v) FBS, 50 U/mL penicillin and 50 µg/mL streptomycin, at 37 °C under a 5% CO2 atmosphere.
To assay the effect of the different compounds against amastigotes, which infect splenic cells, these cells were seeded to confluence into 384-well black optical bottom plates (Thermo Scientific, Waltham, MA, USA) in addition to different concentrations of compound to each well. The viability of amastigotes was calculated by recording their fluorescence at 708 nm in an Odyssey (Li-Cor, NE, USA) infrared imaging system, after 96 h of exposure. Plots of the infrared fluorescence against the concentrations of tested compounds were fitted by nonlinear analysis using the Sigma Plot 10.1 statistical package and used to calculate EC50 values. As well as promastigotes viability, the assays were performed in triplicate.

[2] = test system: murine splenocytes; experiment: Splenocyte viability, Alamar Blue; format: cell-based, BALB/c mice; conditions: for IC50: Mus musculus, Splenocyte, read-out: IC50 Splenocites; for SI (selectivity index): ratio IC50 splenic cells / EC50 amastigotes
Method: The viability of splenocytes cells against the different compounds was measured using the Alamar Blue staining method (Invitrogen, MA, USA). For this purpose, these cells were obtained following the protocol indicated in the previous section, from uninfected mice. Plots of absorbance of viable cells (obtained following manufacturer’s recommendations of Alamar Blue) vs compounds concentration were used to calculate CC50 values. Plots were fitted by nonlinear analysis using the Sigma Plot 10.1 statistical package. The assays were performed by triplicate.
The selectivity index for each compound was calculated as the ratio between the IC50 value for splenic cells and the EC50 value for amastigotes.

[3] = test system: HEK293 (human embryonic kidney); experiment: CCK-8 cytotoxicity assay, HEK293; format: cell-based; conditions: HEK293, 48 h, CCK-8, 50% growth inhibition
Method: (§2) The cytotoxicity of the newly synthesized quinolinylphosphonates 7 was evaluated in vitro by testing their antiproliferative activities against several human cancer cell lines: A549 (human lung adenocarcinoma cells), SKOV3 (human ovarian carcinoma), and HEK293 (human embryonic kidney). In order to analyze the selective cytotoxicity facing exclusively cancerous cell lines, cytotoxicity against non-cancerous cell lines (MRC-5, lung fibroblast cells) was also evaluated. Cell counting kit (CCK-8) assay was employed to assess growth inhibition and, cell proliferation inhibitory activities of compounds that are listed in Table 1 as IC50 values. […] According to the data presented in Table 1, in general, all these phosphorated derivatives present higher selective cytotoxicity in the A549 cell line than in the other two cell lines, SKOV3 and HEK293, although slight differences are observed compared to human ovarian carcinoma (SKOV3).
(§3) Cells were cultured according to the supplier’s instructions, A549 (ATCC® CCL-185), SKOV3 (ATCC® HTB-77), HEK293 (CLS GmbH), MRC-5 (ATCC® CCL-171™). Cells were seeded in 96-well plates at a density of 2–2.5 × 10^3 cells per well and incubated overnight in 0.1 mL of media supplied with 10% Fetal Bovine Serum (Lonza, Basel, Switzerland) in a 5% CO2 incubator at 37 °C. On day 2, drugs (concentration between 0.5–50 μM) were added and samples were incubated for 48 h. After treatment, 10 μL of cell counting kit-8 was added to each well for an additional 2 h incubation at 37 °C. The absorbance of each well was determined by an Automatic Elisa Reader System at 450 nm wavelength. CPT was purchased from Sigma-Aldrich and used as a positive control.

[4] = CCK-8 cytotoxicity assay, MRC-5 non-cancerous cells; format: cell-based; conditions: human, MRC-5 non-malignant lung fibroblasts
Method: as §2, §3

[5] = test system: SKOV3 (human ovarian carcinoma); experiment: CCK-8 cytotoxicity assay, SKOV3; format: cell-based; conditions: SK-OV-3, 48 h, read-out: Cytotoxicity IC50 Ovarian SKOV3
Method: as §2, §3

[6] = test system: L. infantum promastigotes; experiment: In vitro iRFP-L. infantum promastigotes viability assay; format: cell-based; conditions: Leishmania infantum; 96 h exposure, EC50 ± SD
Method: as §1
A genetically modified strain of L infantum BCN 150, expressing iRFP protein from Rhodopseudomonas palustris bacteriophytochrome (iRFP-L. infantum), was used to obtain the EC50 values of the different compounds against promastigotes, through the detection of the near-infrared radiation emitted by living parasites exposed to tested molecules. Thus, the viability of promastigotes was calculated after recording their fluorescence at 708 nm in an Odyssey (Li-Cor, NE, USA) infrared imaging.
iRFP-L. infantum promastigotes were cultured using M199 medium (Gibco, Thermo Fisher Scientific, MA, USA), supplemented with 25 mM 4-(2-hydroxyethyl)-1-piperazineethanesulfonic acid (HEPES) pH 6.9, […] hemin, 10 mM glutamine, 0.1 mM adenosine, 0.01 mM folic acid, 1× RPMI 1640 vitamin mix (Sigma, Darmstadt, Germany), 10% (v/v) heat-inactivated foetal bovine serum (Gibco, Thermo Fisher Scientific, MA, USA), 50 U/mL penicillin and 50 µg/mL streptomycin. The assay was carried out, seeding 1 × 10^6 cells/mL of iRFP-L. infantum promastigotes into 96-well optical bottom black plates (Thermo Scientific, MA, USA) along with different concentrations of compound to each well. The final concentration of DMSO, the solvent used to prepare the stock solutions of compounds, was never higher than 0.1%. All of the compounds’ concentrations and controls were assayed by triplicate.

[7] = test system: A549 (human lung adenocarcinoma cells); experiment: CCK-8 cytotoxicity assay, A549; format: cell-based; conditions: A549, 48 h, read-out: Cytotoxicity IC50 Lung A549
Method: as §2, §3

Compound	EC50 [1] [µM]	IC50 [2] [µM]	SI (selectivity index) [2]	IC50 [3] [µM]	IC50 at 48 h [4] [µM]	IC50 [5] [µM]	melting point [°C]	EC50 [6] [µM]	IC50 [7] [µM]
CC(C)OP(=O)(OC(C)C)c1cccc2c(-c3ccc(F)cc3)cc(-c3ccc(F)cc3)nc12 [7n, Diisopropyl (2,4-bis(4-fluorophenyl)quinolin-8-yl)phosphonate]	5.52 ± 1.11	15.3 ± 1.72	2.8	15 ± 0.99	> 50	19.8 ± 3.83	113 to 115	4.86 ± 0.5	10.6 ± 1.73
CC(C)OP(=O)(OC(C)C)c1cccc2c(-c3ccc(F)cc3)cc(-c3ccc(F)c(F)c3)nc12 [7o, Diisopropyl (2-(3,4-difluorophenyl)-4-(4-fluorophenyl)quinolin-8-yl)phosphonate]	19.7 ± 1.73	18.6 ± 1.1	0.9	21 ± 4.05	> 50	22.1 ± 4.47	144 to 146	19.3 ± 1.79	6.79 ± 3.87
Cc1ccc(-c2cc(-c3ccc(F)cc3)nc3c(P(=O)(OC(C)C)OC(C)C)cccc23)cc1 [7p, Diisopropyl (2-(4-fluorophenyl)-4-(p-tolyl)quinolin-8-yl)phosphonate]	24.3 ± 2.53	21.2 ± 3.5	0.9	14.4 ± 1.69	> 50	12.1 ± 1.68	121 to 123	5.01 ± 0.35	6.84 ± 1.74
Cc1ccc(-c2cc(-c3ccc(F)c(F)c3)nc3c(P(=O)(OC(C)C)OC(C)C)cccc23)cc1 [7q, Diisopropyl (2-(3,4-difluorophenyl)-4-(p-tolyl)quinolin-8-yl)phosphonate]	13.9 ± 3.65	28.3 ± 9.16	2	12.3 ± 0.71	> 50	4.67 ± 1.5	140 to 142	7.46 ± 0.76	8.24 ± 2.42
CCOP(=O)(OCC)c1ccc2nc(-c3ccc(F)cc3)cc(-c3ccccc3)c2c1 [7r, Diethyl (2-(4-fluorophenyl)-4-phenylquinolin-6-yl)phosphonate]	29.2 ± 14	28.1 ± 1.23	1	36.9 ± 8.06	> 50	3.03 ± 1.24	137 to 139	15.2 ± 1.14	2.8 ± 1.24
CCOP(=O)(OCC)c1ccc2nc(-c3ccc(F)c(F)c3)cc(-c3ccccc3)c2c1 [7s, Diethyl (2-(3,4-difluorophenyl)-4-phenylquinolin-6-yl)phosphonate]	14.2 ± 2.83	26.2 ± 0.51	1.8	19.2 ± 1.13	> 50	> 50	134 to 136	14.7 ± 1.78	6.19 ± 0.67
CCOP(=O)(OCC)c1ccc2nc(-c3ccc(F)cc3)cc(-c3ccc(F)cc3)c2c1 [7t, Diethyl (2,4-bis(4-fluorophenyl)quinolin-6-yl)phosphonate]	31.5 ± 2.71	45 ± 10.2	1.4	> 50	> 50	> 50	161 to 164	16.7 ± 0.72	2.85 ± 1.26
CCOP(=O)(OCC)c1ccc2nc(-c3ccc(F)c(F)c3)cc(-c3ccc(F)cc3)c2c1 [7u, Diethyl (2-(3,4-difluorophenyl)-4-(4-fluorophenyl)quinolin-6-yl)phosphonate]	26.4 ± 2.2	> 100	>3.8	> 50	> 50	> 50	130 to 132	7.07 ± 0.61	4.33 ± 1.11
CCOP(=O)(OCC)c1ccc2nc(-c3ccc(F)cc3)cc(-c3ccc(C)cc3)c2c1 [7v, Diethyl (2-(4-fluorophenyl)-4-(p-tolyl)quinolin-6-yl)phosphonate]	17.6 ± 7.81	11.2 ± 4.42	0.6	> 50	> 50	41.6 ± 10	153 to 155	7.02 ± 0.94	0.84 ± 0.23
CCOP(=O)(OCC)c1ccc2nc(-c3ccc(F)c(F)c3)cc(-c3ccc(C)cc3)c2c1 [7x, Diethyl (2-(3,4-difluorophenyl)-4-(p-tolyl)quinolin-6-yl)phosphonate]	33 ± 6.55	32.3 ± 3.36	1	> 50	> 50	> 50	158 to 160	21.3 ± 2.34	3.05 ± 0.86
